According to US20230049952A1, “METHODS AND COMPOUNDS FOR RESTORING MUTANT P53 FUNCTION” (PMV Pharmaceuticals, Inc., priority 2020, published 2023):

System: NF-κB signaling pathway in MT373 tumors
Test: MT373 syngeneic sarcoma model: mouse NF-κB signaling pathway profiling panel
Assay type: in vivo

CCn1c(C#CCNc2ccccc2)cc2cc(CNC3CCN(C)CC3)ccc21 [Compound 1, 1-Anilino-3-{1-ethyl-5-[(1-methyl-4-piperidylamino)methyl]-1H-indol-2-yl}-2-propyne]
Agt fold increase over or percent reduction vs vehicle control (150 mg/kg BIDx1, 24 h): 8.18 ± 30.61 fold or %
Akt1 fold increase over or percent reduction vs vehicle control (150 mg/kg BIDx1, 24 h): 17.84 ± 6.63 fold or %
Atf1 fold increase over or percent reduction vs vehicle control (150 mg/kg BIDx1, 24 h): 42.27 ± 2.47 fold or %
Atf2 fold increase over or percent reduction vs vehicle control (150 mg/kg BIDx1, 24 h): 24.19 ± 2.49 fold or %
Bcl2a1a fold increase over or percent reduction vs vehicle control (150 mg/kg BIDx1, 24 h): 39.52 ± 5.46 fold or %
Bcl2l1 fold increase over or percent reduction vs vehicle control (150 mg/kg BIDx1, 24 h): 1.43 ± 0.11 fold or %
Bcl3 fold increase over or percent reduction vs vehicle control (150 mg/kg BIDx1, 24 h): 1.29 ± 0.31 fold or %
Bcl10 fold increase over or percent reduction vs vehicle control (150 mg/kg BIDx1, 24 h): 38.94 ± 3.05 fold or %
Birc3 fold increase over or percent reduction vs vehicle control (150 mg/kg BIDx1, 24 h): 1.03 ± 0.07 fold or %
Card10 fold increase over or percent reduction vs vehicle control (150 mg/kg BIDx1, 24 h): 1.32 ± 0.33 fold or %
Card11 fold increase over or percent reduction vs vehicle control (150 mg/kg BIDx1, 24 h): 1.14 ± 0.14 fold or %
Casp1 fold increase over or percent reduction vs vehicle control (150 mg/kg BIDx1, 24 h): 14.78 ± 4.65 fold or %
Casp8 fold increase over or percent reduction vs vehicle control (150 mg/kg BIDx1, 24 h): 9.24 ± 3.65 fold or %
Ccl2 fold increase over or percent reduction vs vehicle control (150 mg/kg BIDx1, 24 h): 57.69 ± 14.13 fold or %
Ccl5 fold increase over or percent reduction vs vehicle control (150 mg/kg BIDx1, 24 h): 21.82 ± 7.86 fold or %
Cd27 fold increase over or percent reduction vs vehicle control (150 mg/kg BIDx1, 24 h): 1.11 ± 0.11 fold or %
Cd40 fold increase over or percent reduction vs vehicle control (150 mg/kg BIDx1, 24 h): 30.05 ± 5.34 fold or %
Cflar fold increase over or percent reduction vs vehicle control (150 mg/kg BIDx1, 24 h): 1.01 ± 0.08 fold or %
Chuk fold increase over or percent reduction vs vehicle control (150 mg/kg BIDx1, 24 h): 1.03 ± 0.07 fold or %
Crebbp fold increase over or percent reduction vs vehicle control (150 mg/kg BIDx1, 24 h): 1.07 ± 0.06 fold or %
Csf1 fold increase over or percent reduction vs vehicle control (150 mg/kg BIDx1, 24 h): 14.27 ± 12.28 fold or %
Csf2 fold increase over or percent reduction vs vehicle control (150 mg/kg BIDx1, 24 h): 61.29 ± 2.87 fold or %
Csf3 fold increase over or percent reduction vs vehicle control (150 mg/kg BIDx1, 24 h): 27.25 ± 12.00 fold or %
Egfr fold increase over or percent reduction vs vehicle control (150 mg/kg BIDx1, 24 h): 28.45 ± 5.44 fold or %
Egr1 fold increase over or percent reduction vs vehicle control (150 mg/kg BIDx1, 24 h): 37.93 ± 8.71 fold or %
Eif2ak2 fold increase over or percent reduction vs vehicle control (150 mg/kg BIDx1, 24 h): 1.05 ± 0.10 fold or %
Elk1 fold increase over or percent reduction vs vehicle control (150 mg/kg BIDx1, 24 h): 12.50 ± 9.71 fold or %
F2r fold increase over or percent reduction vs vehicle control (150 mg/kg BIDx1, 24 h): 40.30 ± 2.19 fold or %
Fadd fold increase over or percent reduction vs vehicle control (150 mg/kg BIDx1, 24 h): 5.03 ± 3.48 fold or %
Fasl fold increase over or percent reduction vs vehicle control (150 mg/kg BIDx1, 24 h): 31.85 ± 3.66 fold or %
Fos fold increase over or percent reduction vs vehicle control (150 mg/kg BIDx1, 24 h): 12.09 ± 14.97 fold or %
Hmox1 fold increase over or percent reduction vs vehicle control (150 mg/kg BIDx1, 24 h): 13.99 ± 4.70 fold or %
Icam1 fold increase over or percent reduction vs vehicle control (150 mg/kg BIDx1, 24 h): 1.20 ± 0.24 fold or %
Ifng fold increase over or percent reduction vs vehicle control (150 mg/kg BIDx1, 24 h): 35.82 ± 11.11 fold or %
Ikbkb fold increase over or percent reduction vs vehicle control (150 mg/kg BIDx1, 24 h): 1.13 ± 0.20 fold or %
Ikbke fold increase over or percent reduction vs vehicle control (150 mg/kg BIDx1, 24 h): 1.48 ± 0.37 fold or %
Ikbkg fold increase over or percent reduction vs vehicle control (150 mg/kg BIDx1, 24 h): 1.07 ± 0.09 fold or %
Il1a fold increase over or percent reduction vs vehicle control (150 mg/kg BIDx1, 24 h): 13.50 ± 23.10 fold or %
Il1b fold increase over or percent reduction vs vehicle control (150 mg/kg BIDx1, 24 h): 63.25 ± 18.78 fold or %
Il1r1 fold increase over or percent reduction vs vehicle control (150 mg/kg BIDx1, 24 h): 31.14 ± 6.16 fold or %
Il10 fold increase over or percent reduction vs vehicle control (150 mg/kg BIDx1, 24 h): 1.52 ± 0.15 fold or %
Irak1 fold increase over or percent reduction vs vehicle control (150 mg/kg BIDx1, 24 h): 1.93 ± 9.47 fold or %
Irak2 fold increase over or percent reduction vs vehicle control (150 mg/kg BIDx1, 24 h): 24.86 ± 5.53 fold or %
Irf1 fold increase over or percent reduction vs vehicle control (150 mg/kg BIDx1, 24 h): 4.44 ± 20.95 fold or %
Jun fold increase over or percent reduction vs vehicle control (150 mg/kg BIDx1, 24 h): 29.31 ± 10.13 fold or %
Lta fold increase over or percent reduction vs vehicle control (150 mg/kg BIDx1, 24 h): 12.59 ± 29.28 fold or %
Ltbr fold increase over or percent reduction vs vehicle control (150 mg/kg BIDx1, 24 h): 11.61 ± 7.41 fold or %
Map3k1 fold increase over or percent reduction vs vehicle control (150 mg/kg BIDx1, 24 h): 1.40 ± 0.14 fold or %
Mapk3 fold increase over or percent reduction vs vehicle control (150 mg/kg BIDx1, 24 h): 10.05 ± 3.02 fold or %
Myd88 fold increase over or percent reduction vs vehicle control (150 mg/kg BIDx1, 24 h): 1.33 ± 0.11 fold or %
Nfkb1 fold increase over or percent reduction vs vehicle control (150 mg/kg BIDx1, 24 h): 1.39 ± 12.08 fold or %
Nfkb2 fold increase over or percent reduction vs vehicle control (150 mg/kg BIDx1, 24 h): 1.01 ± 0.29 fold or %
Nfkbia fold increase over or percent reduction vs vehicle control (150 mg/kg BIDx1, 24 h): 3.07 ± 2.68 fold or %
Nod1 fold increase over or percent reduction vs vehicle control (150 mg/kg BIDx1, 24 h): 1.24 ± 0.24 fold or %
Raf1 fold increase over or percent reduction vs vehicle control (150 mg/kg BIDx1, 24 h): 11.54 ± 3.56 fold or %
Rel fold increase over or percent reduction vs vehicle control (150 mg/kg BIDx1, 24 h): 1.09 ± 0.06 fold or %
Rela fold increase over or percent reduction vs vehicle control (150 mg/kg BIDx1, 24 h): 1.02 ± 0.07 fold or %
Relb fold increase over or percent reduction vs vehicle control (150 mg/kg BIDx1, 24 h): 1.10 ± 0.14 fold or %
Ripk1 fold increase over or percent reduction vs vehicle control (150 mg/kg BIDx1, 24 h): 1.25 ± 0.04 fold or %
Ripk2 fold increase over or percent reduction vs vehicle control (150 mg/kg BIDx1, 24 h): 27.80 ± 7.83 fold or %
Slc20a1 fold increase over or percent reduction vs vehicle control (150 mg/kg BIDx1, 24 h): 29.02 ± 4.69 fold or %
Smad3 fold increase over or percent reduction vs vehicle control (150 mg/kg BIDx1, 24 h): 4.92 ± 19.78 fold or %
Stat1 fold increase over or percent reduction vs vehicle control (150 mg/kg BIDx1, 24 h): 1.17 ± 0.19 fold or %
Tbk1 fold increase over or percent reduction vs vehicle control (150 mg/kg BIDx1, 24 h): 6.71 ± 4.73 fold or %
Tlr1 fold increase over or percent reduction vs vehicle control (150 mg/kg BIDx1, 24 h): 1.17 ± 0.16 fold or %
Tlr2 fold increase over or percent reduction vs vehicle control (150 mg/kg BIDx1, 24 h): 4.13 ± 15.48 fold or %
Tlr3 fold increase over or percent reduction vs vehicle control (150 mg/kg BIDx1, 24 h): 1.08 ± 0.12 fold or %
Tlr4 fold increase over or percent reduction vs vehicle control (150 mg/kg BIDx1, 24 h): 1.11 ± 0.05 fold or %
Tlr6 fold increase over or percent reduction vs vehicle control (150 mg/kg BIDx1, 24 h): 1.04 ± 0.10 fold or %
Tlr9 fold increase over or percent reduction vs vehicle control (150 mg/kg BIDx1, 24 h): 1.33 ± 0.19 fold or %
Tnf fold increase over or percent reduction vs vehicle control (150 mg/kg BIDx1, 24 h): 1.84 ± 47.89 fold or %
Tnfaip3 fold increase over or percent reduction vs vehicle control (150 mg/kg BIDx1, 24 h): 3.01 ± 14.38 fold or %
Tnfrsf1a fold increase over or percent reduction vs vehicle control (150 mg/kg BIDx1, 24 h): 1.21 ± 0.13 fold or %
Tnfrsf1b fold increase over or percent reduction vs vehicle control (150 mg/kg BIDx1, 24 h): 1.23 ± 0.12 fold or %
Tnfrsf10b fold increase over or percent reduction vs vehicle control (150 mg/kg BIDx1, 24 h): 2.61 ± 0.31 fold or %
Tnfsf10 fold increase over or percent reduction vs vehicle control (150 mg/kg BIDx1, 24 h): 18.51 ± 14.05 fold or %
Tnfsf14 fold increase over or percent reduction vs vehicle control (150 mg/kg BIDx1, 24 h): 1.11 ± 0.17 fold or %
Tollip fold increase over or percent reduction vs vehicle control (150 mg/kg BIDx1, 24 h): 1.01 ± 0.06 fold or %
Tradd fold increase over or percent reduction vs vehicle control (150 mg/kg BIDx1, 24 h): 1.17 ± 0.08 fold or %
Traf2 fold increase over or percent reduction vs vehicle control (150 mg/kg BIDx1, 24 h): 8.21 ± 7.59 fold or %
Traf3 fold increase over or percent reduction vs vehicle control (150 mg/kg BIDx1, 24 h): 13.02 ± 10.57 fold or %
Traf5 fold increase over or percent reduction vs vehicle control (150 mg/kg BIDx1, 24 h): 21.79 ± 2.60 fold or %
Traf6 fold increase over or percent reduction vs vehicle control (150 mg/kg BIDx1, 24 h): 1.03 ± 0.16 fold or %
Zap70 fold increase over or percent reduction vs vehicle control (150 mg/kg BIDx1, 24 h): 1.01 ± 0.07 fold or %
Agt fold increase over or percent reduction vs vehicle control (150 mg/kg BIDx1, 48 h): 1.60 ± 0.41 fold or %
Akt1 fold increase over or percent reduction vs vehicle control (150 mg/kg BIDx1, 48 h): 4.50 ± 1.92 fold or %
Atf1 fold increase over or percent reduction vs vehicle control (150 mg/kg BIDx1, 48 h): 42.46 ± 1.99 fold or %
Atf2 fold increase over or percent reduction vs vehicle control (150 mg/kg BIDx1, 48 h): 30.02 ± 3.86 fold or %
